Assays:
METTL16 = biological target: T1, METTL16 (Homo sapiens, UniProt Q86W50); experiment: Thermal shift assay; assay type: binding
T1 sequence (Q86W50 1-562): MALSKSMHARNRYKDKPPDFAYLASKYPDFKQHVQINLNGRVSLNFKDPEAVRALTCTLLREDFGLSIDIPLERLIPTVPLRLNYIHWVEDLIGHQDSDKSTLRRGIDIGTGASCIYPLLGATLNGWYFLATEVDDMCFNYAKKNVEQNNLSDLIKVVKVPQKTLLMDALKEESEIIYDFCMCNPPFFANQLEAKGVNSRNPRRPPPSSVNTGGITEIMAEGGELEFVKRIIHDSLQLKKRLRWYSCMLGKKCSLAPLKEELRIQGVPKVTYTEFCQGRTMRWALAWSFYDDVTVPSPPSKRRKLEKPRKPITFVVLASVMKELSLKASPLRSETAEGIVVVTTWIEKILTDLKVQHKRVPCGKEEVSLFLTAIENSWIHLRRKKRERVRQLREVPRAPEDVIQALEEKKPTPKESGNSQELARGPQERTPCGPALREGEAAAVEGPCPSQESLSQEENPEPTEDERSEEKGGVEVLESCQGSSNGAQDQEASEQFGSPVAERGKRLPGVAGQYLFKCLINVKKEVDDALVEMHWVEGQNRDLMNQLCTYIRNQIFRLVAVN
Experimental: (§1) METTL1 mediates the formation of N7-methylguanine in a subset of RNA species, such as tRNAs, mRNAs, and microRNAs, whereas METTL16 is able to N6-methylate a subset of mRNAs and U6 small nuclear RNAs.[23],[24] The co-product of methyl transfer catalysis, S-adenosyl-L-homocysteine (SAH), was used as a positive control in the thermal shift assay. […] Compound 54 at 200 μM was able to shift the melting curve of METTL3/METTL14 by 1.8 °C compared to the DMSO control (Figure S4).
(§2) The protein sample was buffered in 25 mM HEPES (pH 7.4) and 150 mM NaCl and assayed in a 96-well plate at a final concentration of 2 μM in 20 μL volume. The SYPRO Orange dye was added as a fluorescence probe at a dilution of 1:1000. The compound 54 concentrations tested were 10, 50, 100, and 200 μM, while the SAH concentrations tested were 100, 500, 1000, and 2000 μM. The temperature was raised with a step of 0.5 °C starting from 20 to 80 °C, and fluorescence readings were taken at each interval. The reported values (ΔTm) are calculated as the difference between the transition midpoints of an individual sample and the average of the reference wells (containing the protein and the DMSO only) in the same plate. The DMSO concentration was kept at 1% (v/v).

METTL3/METTL14 [1] = biological target: T2, METTL3/METTL14 (Homo sapiens, UniProt Q86U44); experiment: Thermal shift assay; assay type: binding; settings: vs DMSO control
T2 construct: made in house; host or cells: Sf9 insect cells (baculovirus)
Experimental: as §1, §2

METTL1 = METTL1 (Homo sapiens, UniProt Q9UBP6); experiment: Thermal shift assay; assay type: binding
Experimental: as §1, §2

[2] = test system: m^6A/A level in MOLM-13 cells; design: method as in PMID 34237194; settings: read-out: IC50 for m^6A/A reduction; cited from earlier work
METTL3/METTL14 [3] = biological target: T2, METTL3/METTL14; experiment: METTL3 enzymatic inhibition assay by homogeneous time-resolved fluorescence (HTRF); assay type: biochemical
Experimental: Compound potencies were evaluated by using a previously reported METTL3 inhibition assay. […] Tested compounds that inhibit METTL3 decrease the m^6A level and thus reduce the HTRF signal. The biochemical assay was performed, as described previously.[19] The IC50 values derived from fitting a dose–response curve to the data using nonlinear regression. The IC50 values are given as an average of at least two independent measurements for each compound in the text.

MOLM-13 cells = experiment: Antiproliferative activity / cytotoxicity (GI50), CellTiter-Glo; assay type: cell-based
Experimental: We then decided to evaluate the cellular potency of inhibitor 54. The antiproliferative activity on MOLM-13, which is an acute myeloid leukemia cell line, was measured using a previously published protocol with a 3-day incubation time.[10]
MOLM-13 cells were cultured in RPMI 1640 medium containing 10% Gibco FBS and 1% penicillin/streptomycin (complete medium) in 5% CO2 at 37 °C in a humidified incubator, with maintained cell densities at 0.6–2 × 10^6 cells/mL.
Cells were seeded in white clear-bottom 96-well plates at a density of 2 × 10^4 cells/well in 50 μL of the complete RPMI medium and treated with 50 μL increasing concentrations of compound 54 dissolved in DMSO (final concentration of compounds 1.25–160 μM) or DMSO only (0.5% (v/v)) as a negative control and incubated for 72 h at 37 °C with 5% CO2. Cell viability was determined using a CellTiter-Glo luminescent cell viability assay (Promega G7570) based on the detection of ATP according to the manufacturer’s instructions. […] The luminescence was recorded using a Tecan Infinite […] M1000 microplate reader from the top. The background luminescence value was obtained from wells containing the CellTiter-Glo reagent and medium without cells. Cell viability curves were plotted in GraphPad Prism 9 and fitted with nonlinear regression, from which GI50 values were determined.

[4] = SAH at 2000 μM, vs DMSO control

T2 sequence (Q86U44 whole entry): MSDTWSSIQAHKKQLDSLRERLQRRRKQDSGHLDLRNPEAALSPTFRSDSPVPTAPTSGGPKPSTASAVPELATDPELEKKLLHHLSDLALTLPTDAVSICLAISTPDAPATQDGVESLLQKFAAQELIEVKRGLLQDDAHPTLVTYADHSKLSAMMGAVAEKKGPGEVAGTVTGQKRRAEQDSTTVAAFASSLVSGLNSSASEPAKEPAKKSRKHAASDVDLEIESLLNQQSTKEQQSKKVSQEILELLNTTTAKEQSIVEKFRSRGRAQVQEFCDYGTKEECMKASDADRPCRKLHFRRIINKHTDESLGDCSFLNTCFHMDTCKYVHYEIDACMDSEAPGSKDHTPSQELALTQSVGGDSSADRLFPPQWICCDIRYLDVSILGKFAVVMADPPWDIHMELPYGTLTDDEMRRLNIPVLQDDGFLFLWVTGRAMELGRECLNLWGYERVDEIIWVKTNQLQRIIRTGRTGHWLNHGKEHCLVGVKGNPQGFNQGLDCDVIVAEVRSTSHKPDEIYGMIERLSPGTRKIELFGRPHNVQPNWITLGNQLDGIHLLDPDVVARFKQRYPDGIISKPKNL
T2 sequence (Q9HCE5 whole entry partner): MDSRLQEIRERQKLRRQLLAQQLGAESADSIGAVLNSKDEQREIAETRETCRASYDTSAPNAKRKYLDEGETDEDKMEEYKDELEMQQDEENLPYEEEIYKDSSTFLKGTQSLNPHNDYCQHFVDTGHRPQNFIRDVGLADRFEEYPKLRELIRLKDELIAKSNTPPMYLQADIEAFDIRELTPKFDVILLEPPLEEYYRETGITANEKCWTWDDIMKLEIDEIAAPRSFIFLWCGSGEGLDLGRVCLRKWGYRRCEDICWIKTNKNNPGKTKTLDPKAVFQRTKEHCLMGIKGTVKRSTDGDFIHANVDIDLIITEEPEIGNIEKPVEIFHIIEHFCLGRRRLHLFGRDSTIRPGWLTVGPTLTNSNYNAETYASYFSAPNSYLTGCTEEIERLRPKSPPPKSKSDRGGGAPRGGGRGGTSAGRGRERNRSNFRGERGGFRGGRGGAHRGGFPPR
METTL1, sequence (Q9UBP6 whole entry, species assumed): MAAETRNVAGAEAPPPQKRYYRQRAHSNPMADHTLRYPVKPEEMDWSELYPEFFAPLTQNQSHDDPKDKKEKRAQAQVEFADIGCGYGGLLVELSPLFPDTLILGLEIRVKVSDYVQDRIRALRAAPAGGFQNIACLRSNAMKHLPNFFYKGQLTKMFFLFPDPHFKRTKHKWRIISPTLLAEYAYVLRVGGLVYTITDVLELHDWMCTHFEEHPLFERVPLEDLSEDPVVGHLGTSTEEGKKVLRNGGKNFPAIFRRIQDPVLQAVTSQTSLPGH

## Nc1ncnc2c1ncn2[C@@H]1O[C@H](CSCC[C@H](N)C(=O)O)[C@@H](O)[C@H]1O [SAH, S-adenosyl-L-homocysteine, reference compound]
METTL16; [4]
  ΔTm: 2.5 °C
METTL3/METTL14 [1]; SAH at 2000 μM
  ΔTm: 4.05 °C
METTL1; [4]
  ΔTm: 8.75 °C

## CC1(C)CCN(Cc2ccc(C(=O)NC[C@]3(O)CCCN(c4cc(NCc5ccccc5)ncn4)C3)c(O)c2)CC1 [UZH1a]
[2]
  IC50: 4.6 µM

## CC(C)C1N(Cc2ccc3c(NCC4(O)CCCN(c5cc(NCc6ccccc6)ncn5)C4)cccc3c2)CC12CCC2 (centres unmarked) [compound 54, 1-(6-(benzylamino)pyrimidin-4-yl)-3-(((6-((1-isopropyl-2-azaspiro[3.3]heptan-2-yl)methyl)naphthalen-1-yl)amino)methyl)piperidin-3-ol]
METTL3/METTL14 [3]; HTRF assay, racemic mixture, read-out: IC50
  IC50: 0.054 µM
METTL3/METTL14 [3]; matched pair 46:54
  fold improvement in affinity (IC50) vs compound 46: 6.7 fold
METTL16; compound up to 200 μM
  ΔTm (shift of melting curve): No shift
METTL3/METTL14 [1]; compound at 200 μM, read-out: ΔTm (shift of melting curve)
  ΔTm at 200 µM: 1.8 °C
METTL1; compound up to 200 μM
  ΔTm (shift of melting curve): No shift
MOLM-13 cells; Homo sapiens, MOLM-13, 3-day (72 h) incubation, average of two biological replicates
  GI50: 6 µM
MOLM-13 cells; MOLM-13 GI50 vs HTRF IC50
  factor by which cellular GI50 is higher than biochemical IC50: about 100

— article PMC10436262, “Structure-Based Design of Inhibitors of the m^6A-RNA Writer Enzyme METTL3” (ACS Bio & Med Chem Au, 2023)
